Laboratory results from patent US11691962B2 (eXIthera Pharmaceuticals, Inc., priority 2018, dated 2023).

molecular target: Factor XIa (Homo sapiens (Human), UniProt P03951); assay: Factor XIa enzyme inhibition assay (dose response, fluorogenic AMC substrate); type: biochemical; conditions: read-out: hFXIa IC50
Outline: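 Fluorogenic progress curves (30 min, 1-min reads, 30° C) were recorded for 0.25 nM FXIa cleaving 50 μM Glp-Pro-Arg-AMC in Hepes pH 7.4 buffer with NaCl and Tween 20. Compounds were serially two-fold diluted, and IC50 was fitted with a Hill equation.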

Factor XIa, sequence (P03951 388-625): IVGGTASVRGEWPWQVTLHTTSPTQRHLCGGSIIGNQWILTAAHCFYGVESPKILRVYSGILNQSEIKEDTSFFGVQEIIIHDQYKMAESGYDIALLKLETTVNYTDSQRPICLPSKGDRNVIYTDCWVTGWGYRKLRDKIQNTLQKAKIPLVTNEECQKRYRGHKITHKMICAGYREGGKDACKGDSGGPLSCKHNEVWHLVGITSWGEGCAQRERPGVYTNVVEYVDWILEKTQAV
Factor XIa, sequence (P03951 19-387 partner): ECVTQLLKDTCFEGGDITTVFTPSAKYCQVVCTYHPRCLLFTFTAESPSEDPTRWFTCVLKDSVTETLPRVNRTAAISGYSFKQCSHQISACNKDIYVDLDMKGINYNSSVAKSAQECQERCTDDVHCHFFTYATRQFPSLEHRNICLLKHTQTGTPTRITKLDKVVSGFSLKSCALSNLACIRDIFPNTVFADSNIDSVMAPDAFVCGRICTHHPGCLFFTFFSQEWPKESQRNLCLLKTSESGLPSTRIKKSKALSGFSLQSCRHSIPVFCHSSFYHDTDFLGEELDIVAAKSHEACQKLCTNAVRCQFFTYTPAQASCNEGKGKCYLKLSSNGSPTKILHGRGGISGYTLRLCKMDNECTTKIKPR

IC50, 100 to 1000 nM:
CC[C@H](NC(=O)N1C(=O)[C@H](Cc2ccnc(N)c2)[C@H]1C(=O)N(C)c1nccn1C)c1cc(F)ccc1F [Compound 1-221, (2S,3R)-3-((2-aminopyridin-4-yl)methyl)-N2-(1-methyl-1H-imidazol-2-yl)-N1-((S)-1-(2,5-difuorophenyl)propyl)-N2-methyl-4-oxoazetidine-1,2-dicarboxamide]
CC[C@@H](NC(=O)N1C(=O)[C@H](Cc2ccnc(N)c2)[C@H]1C(=O)N(C)c1ccn(C)n1)c1ccn(C)n1 [Compound 1-42, (2S,3R)-3-((2-aminopyridin-4-yl)methyl)-N2-(1-methyl-1H-pyrazol-3-yl)-N1-((R)-1-(1-methyl-1H-pyrazol-3-yl)propyl)-N2-methyl-4-oxoazetidine-1,2-dicarboxamide]

IC50, < 10 nM:
CC[C@@H](NC(=O)N1C(=O)[C@H](Cc2ccnc(N)c2)[C@H]1C(=O)N(C)c1ccnn1C)c1cc(F)ccc1F [Compound 1-217, (2S,3R)-3-((2-aminopyridin-4-yl)methyl)-N2-(1-methyl-1H-pyrazol-5-yl)-N1-((R)-1-(2,5-difluorophenyl)propyl)-N2-methyl-4-oxoazetidine-1,2-dicarboxamide]
CC[C@@H](NC(=O)N1C(=O)[C@H](Cc2cc(C)nc(N)c2)[C@H]1C(=O)N(C)c1ccnn1C)c1ccc(C)cc1 [Compound 1-154, (2S,3R)-3-((2-amino-6-methylpyridin-4-yl)methyl)-N2-(1-methyl-1H-pyrazol-5-yl)-N1-((R)-1-(4-methylphenyl)propyl)-N2-methyl-4-oxoazetidine-1,2-dicarboxamide]
CC[C@@H](NC(=O)N1C(=O)[C@H](Cc2ccnc(N)c2)[C@H]1C(=O)N(C)c1ccnn1C)c1cc(C)c(F)c(C)c1 [Compound 1-205, (2S,3R)-3-((2-aminopyridin-4-yl)methyl)-N2-(1-methyl-1H-pyrazol-5-yl)-N1-((R)-1-(3,5-dimethyl-4-fluorophenyl)propyl)-N2-methyl-4-oxoazetidine-1,2-dicarboxamide]
CC[C@@H](NC(=O)N1C(=O)[C@H](Cc2cc(C)nc(N)c2)[C@H]1C(=O)N(C)c1ccnn1C)c1cc(C)ccc1F [Compound 1-164, (2S,3R)-3-((2-amino-6-methylpyridin-4-yl)methyl)-N2-(1-methyl-1H-pyrazol-5-yl)-N1-((R)-1-(2-fluoro-5-methylphenyl)propyl)-N2-methyl-4-oxoazetidine-1,2-dicarboxamide]
CC[C@@H](NC(=O)N1C(=O)[C@H](Cc2ccnc(N)c2)[C@H]1C(=O)N(C)c1ccn(C)n1)c1ccc(C)nc1 [Compound 1-20, (2S,3R)-3-((2-aminopyridin-4-yl)methyl)-N2-(1-methyl-1H-pyrazol-3-yl)-N1-((R)-1-(6-methylpyridin-3-yl)propyl)-N2-methyl-4-oxoazetidine-1,2-dicarboxamide]
CC[C@@H](NC(=O)N1C(=O)[C@H](Cc2ccnc(N)c2)[C@H]1C(=O)N(C)c1nccn1C)c1ccc(F)c(F)c1C [Compound 1-212, (2S,3R)-3-((2-aminopyridin-4-yl)methyl)-N2-(1-methyl-1H-imidazol-2-yl)-N1-((R)-1-(3,4-difluoro-2-methylphenyl)propyl)-N2-methyl-4-oxoazetidine-1,2-dicarboxamide]
CC[C@@H](NC(=O)N1C(=O)[C@H](Cc2ccnc(N)c2)[C@H]1C(=O)N(C)c1ccnn1C)c1cccc(F)c1F [Compound 1-213, (2S,3R)-3-((2-aminopyridin-4-yl)methyl)-N2-(1-methyl-1H-pyrazol-5-yl)-N1-((R)-1-(2,3-difluorophenyl)propyl)-N2-methyl-4-oxoazetidine-1,2-dicarboxamide]
CC[C@@H](NC(=O)N1C(=O)[C@H](Cc2ccnc(N)c2)[C@H]1C(=O)N(C)c1cscn1)c1cccc(C)c1 [Compound 1-24, (2S,3R)-3-((2-aminopyridin-4-yl)methyl)-N2-(4-thiazolyl)-N1-((R)-1-(3-methylphenyl)propyl)-N2-methyl-4-oxoazetidine-1,2-dicarboxamide]
CC[C@@H](NC(=O)N1C(=O)[C@H](Cc2ccnc(N)c2)[C@H]1C(=O)N(C)c1nccn1C)c1ccc(C)c(F)c1C [Compound 1-196, (2S,3R)-3-((2-aminopyridin-4-yl)methyl)-N2-(1-methyl-1H-imidazol-2-yl)-N1-((R)-1-(2,4-dimethyl-3-fluorophenyl)propyl)-N2-methyl-4-oxoazetidine-1,2-dicarboxamide]
CC[C@@H](NC(=O)N1C(=O)[C@H](Cc2cc(C)nc(N)c2)[C@H]1C(=O)N(C)c1ccnn1C)c1ccc(F)cc1 [Compound 1-156, (2S,3R)-3-((2-amino-6-methylpyridin-4-yl)methyl)-N2-(1-methyl-1H-pyrazol-5-yl)-N1-((R)-1-(4-fluorophenyl)propyl)-N2-methyl-4-oxoazetidine-1,2-dicarboxamide]

IC50, 10 to 100 nM:
CC[C@@H](NC(=O)N1C(=O)[C@H](Cc2cc(C)nc(N)c2)[C@H]1C(=O)N(C)c1cn(C)cn1)C1CCCCC1 [Compound 1-76, (2S,3R)-3-((2-amino-6-methylpyridin-4-yl)methyl)-N2-(1-methyl-1H-imidazol-4-yl)-N1-((R)-1-cyclohexylpropyl)-N2-methyl-4-oxoazetidine-1,2-dicarboxamide]
CC[C@@H](NC(=O)N1C(=O)[C@H](Cc2ccnc(N)c2)[C@H]1C(=O)N(C)c1c(C)cnn1C)c1ccccc1 [Compound 1-78, (2S,3R)-3-((2-aminopyridin-4-yl)methyl)-N2-(1,4-dimethyl-1H-pyrazol-5-yl)-N1-((R)-1-phenylpropyl)-N2-methyl-4-oxoazetidine-1,2-dicarboxamide]
CC[C@@H](NC(=O)N1C(=O)[C@H](Cc2cc(C)nc(N)c2)[C@H]1C(=O)N(C)c1cnn(C)c1)c1cc(C)ccc1F [Compound 1-177, (2S,3R)-3-((2-amino-6-methylpyridin-4-yl)methyl)-N2-(1-methyl-1H-pyrazol-4-yl)-N1-((R)-1-(2-fluoro-5-methylphenyl)propyl)-N2-methyl-4-oxoazetidine-1,2-dicarboxamide]
CN(C(=O)[C@@H]1[C@@H](Cc2ccnc(N)c2)C(=O)N1C(=O)N[C@@H](C1CC1)C(F)(F)F)c1ccn(C)n1 [Compound 1-30, (2S,3R)-3-((2-aminopyridin-4-yl)methyl)-N2-(1-methyl-1H-pyrazol-3-yl)-N1-((S)-1-cyclopropyl-2,2,2-trifluoroethyl)-N2-methyl-4-oxoazetidine-1,2-dicarboxamide]
CC[C@@H](NC(=O)N1C(=O)[C@H](Cc2cc(C)nc(N)c2)[C@H]1C(=O)N(C)c1cnn(C)c1)c1ccc(C)cc1 [Compound 1-181, (2S,3R)-3-((2-amino-6-methylpyridin-4-yl)methyl)-N2-(1-methyl-1H-pyrazol-4-yl)-N1-((R)-1-(4-methylphenyl)propyl)-N2-methyl-4-oxoazetidine-1,2-dicarboxamide]
CC[C@@H](NC(=O)N1C(=O)[C@H](Cc2cc(C)nc(N)c2)[C@H]1C(=O)N(C)c1cnn(C)c1)c1cc(C)ccc1C [Compound 1-176, (2S,3R)-3-((2-amino-6-methylpyridin-4-yl)methyl)-N2-(1-methyl-1H-pyrazol-4-yl)-N1-((R)-1-(2,5-dimethylphenyl)propyl)-N2-methyl-4-oxoazetidine-1,2-dicarboxamide]
CC[C@@H](NC(=O)N1C(=O)[C@H](Cc2cc(C)nc(N)c2)[C@H]1C(=O)N(C)c1nccn1C)C1CCCCC1 [Compound 1-75, (2S,3R)-3-((2-amino-6-methylpyridin-4-yl)methyl)-N2-(1-methyl-1H-imidazol-2-yl)-N1-((R)-1-cyclohexylpropyl)-N2-methyl-4-oxoazetidine-1,2-dicarboxamide]
CC[C@@H](NC(=O)N1C(=O)[C@H](Cc2ccnc(N)c2)[C@H]1C(=O)N(C)c1ccn(C)n1)c1cccc(C)c1 [Compound 1-14, (2S,3R)-3-((2-aminopyridin-4-yl)methyl)-N2-(1-methyl-1H-pyrazol-3-yl)-N1-((R)-1-(3-methylphenyl)propyl)-N2-methyl-4-oxoazetidine-1,2-dicarboxamide]
CC[C@H](c1cccc(Cl)c1)N(C)C(=O)N1C(=O)[C@H](Cc2ccnc(N)c2)[C@H]1C(=O)N(C)c1ccn(C)n1 [Compound 1-7, (2S,3R)-3-((2-aminopyridin-4-yl)methyl)-N2-(1-methyl-1H-pyrazol-3-yl)-N1-((R)-1-(3-chlorophenyl)propyl)-N1-methyl-N2-methyl-4-oxoazetidine-1,2-dicarboxamide]
CC[C@@H](NC(=O)N1C(=O)[C@H](Cc2ccnc(N)c2)[C@H]1C(=O)N(C)c1nccn1C)C1CCCCO1 (stereo partly drawn) [Compound 1-121, (2S,3R)-3-((2-aminopyridin-4-yl)methyl)-N2-(1-methyl-1H-imidazol-2-yl)-N1-((R)-1-(oxan-2-yl)propyl)-N2-methyl-4-oxoazetidine-1,2-dicarboxamide]
CC[C@@H](NC(=O)N1C(=O)[C@H](Cc2cc(C)nc(N)c2)[C@H]1C(=O)N(C)c1cnn(C)c1)c1ccc(F)cc1F [Compound 1-188, (2S,3R)-3-((2-amino-6-methylpyridin-4-yl)methyl)-N2-(1-methyl-1H-pyrazol-4-yl)-N1-((R)-1-(2,4-difluorophenyl)propyl)-N2-methyl-4-oxoazetidine-1,2-dicarboxamide]
CN(C(=O)[C@@H]1[C@@H](Cc2ccnc(N)c2)C(=O)N1C(=O)NC(C1CCCCC1)C(F)(F)F)c1ccnn1C (stereo in doubt) [Compound 1-6, (2S,3R)-3-((2-aminopyridin-4-yl)methyl)-N2-(1-methyl-1H-pyrazol-5-yl)-N1-((R)-1-cyclohexyl-2,2,2-trifluoroethyl)-N2-methyl-4-oxoazetidine-1,2-dicarboxamide]
CC[C@@H](NC(=O)N1C(=O)[C@H](Cc2cc(C)nc(N)c2)[C@H]1C(=O)N(C)c1cnn(C)c1)c1ccc(F)c(C)c1 [Compound 1-171, (2S,3R)-3-((2-amino-6-methylpyridin-4-yl)methyl)-N2-(1-methyl-1H-pyrazol-4-yl)-N1-((R)-1-(4-fluoro-3-methylphenyl)propyl)-N2-methyl-4-oxoazetidine-1,2-dicarboxamide]
